# From a melting point compilation (Tetko et al.)
row,Structure (SMILES),melting point
1,CCC(C)(C)c1cc(O)c(C(C)(C)CC)cc1O,180 °C
2,CC(CCc1ccccc1)NC(C)C(O)c1ccc(O)cc1 (centres undefined),112 °C
3,CCCCOc1ccc(NC(=O)C(F)(F)C(F)(F)C(F)(F)C(F)(F)C(F)(F)C(F)(F)C(F)(F)C(F)(F)F)cc1,136 to 138 °C
4,CC12CCC(C(O)=CC1=O)C2(C)C (centres undefined),221 °C
5,CC(C)(C)OC(=O)N[C@@H](Cc1c[nH]cn1)C(=O)O,196 to 199 °C
6,O=C(O)CCCCCCCCCCCCCCCCCCCCC(=O)O,125 to 127 °C
7,O=S1OCCO1,-11 °C
8,OCc1cccnc1N1CCOCC1,80 to 83 °C
9,CC(CCC(=O)O)C1CCC2C3CCC4CC(O)CCC4(C)C3CC(O)C12C (centres undefined),177 °C
10,CC(=O)OC1CCC2(C)C(CCC3C2CCC2(C)C3CCC(=O)C2(C)OC(C)=O)C1 (centres undefined),195 to 207 °C
11,COc1cccc(C=Nc2n[nH]c(N=Cc3cccc(OC)c3O)c2Cc2ccc(Cl)cc2)c1O,261 to 263 °C
12,CC(=O)OCC(=O)C12N=C(C)OC1CC1C3CCC4=CC(=O)C=CC4(C)C3C(O)CC12C (centres undefined),256 °C
13,COCCCl,-55 °C
14,C#CCCC#C,-6 °C
15,CCOC(=O)CCC(C)C1CCC2C3C(=O)CC4CC(=O)CCC4(C)C3CC(=O)C12C (centres undefined),222 °C
16,O=C(Nc1cccc(N=[N+]([O-])c2cccc(NC(=O)c3ccccc3)c2)c1)c1ccccc1,247 °C
17,CC(C(C#N)C(N)=O)C(C#N)C(N)=O (centres undefined),151 to 160 °C
18,O=C(Oc1ccccc1)c1c2ccccc2nc2ccccc12,188 to 192 °C
19,O=C(OC1CCCCC1)c1ccccc1C(=O)OC1CCCCC1,66 °C
20,O=C(Nc1ccccn1)C(F)(F)C(F)(F)C(F)(F)C(F)(F)C(F)(F)C(F)(F)C(F)(F)C(F)(F)F,66 °C
21,CCCCC(/C=C1\C(=O)C2(C)CCC1C2(C)C)(/C=C1\C(=O)C2(C)CCC1C2(C)C)C(=O)OCC (centres undefined),175 °C
22,O=C(O)CC(O)(c1ccccc1)c1ccccc1,210 °C

row,Structure (SMILES),melting point
1,CCc1ccc(C(=O)NN(C(=O)c2cc(C)cc(C)c2)C(C)(C)C)cc1,191 °C
2,O=C(OCC(=O)N1CCC[C@H]1C(=O)O)c1ccccc1,116 °C
3,Cn1c(=O)c(C2=NNC(=O)C2=Cc2ccccc2O)c(O)c2ccccc21,240 °C
4,CCN(CC)C(=O)n1cnc(S(=O)(=O)c2c(C)cc(C)cc2C)n1,115 °C
5,Clc1cccc(-c2cccc(Cl)c2)c1,29 °C
6,O=C(O)c1ccc(CSc2ccc(C(F)(F)F)cn2)o1,176 to 178 °C
7,CN1CCN(Cc2ccccc2N)CC1,87 to 88 °C
8,O=Cc1ccc(OP(=S)(Oc2ccc(C=O)cc2)Oc2ccc(C=O)cc2)cc1,115 to 119 °C
9,Cc1nc(C(N)=S)cs1,201 to 203 °C
10,ON=C(Cc1ccccc1)C(Cc1ccccc1)=NO,193 °C
11,Brc1cccc(N2CCOCC2)n1,50 to 51 °C
12,Clc1ccccc1-c1ccccc1Cl,61.5 °C
13,C#CC1(OC(N)=O)CCCCC1,96 °C
14,COc1ccc(C2C(C#N)=C(N)Oc3[nH]nc(C(F)(F)F)c32)cc1 (centres undefined),204 °C
15,O=C(O)CNCC(=O)O,248 °C
16,CC(C)(C)OC(=O)N1CC(C#N)C1,70 °C
17,CCCCCCCCCCCCCN,27.4 °C
18,Oc1c(Cl)c(Cl)c(O)c(Cl)c1Cl,239 °C
19,CCCCOCOCCCC,-58.1 °C
20,CC(=O)OC[C@@H](OC(C)=O)[C@@H](OC(C)=O)[C@H](OC(C)=O)[C@@H](OC(C)=O)C(=O)O,109 to 111 °C
21,O=C(Nc1ccccn1)C(C(F)(F)F)C(F)(F)F,108 to 110 °C

# Now from value to molecule:
row,melting point,Structure (SMILES)
1,312 °C,O=C(Nc1ccc([N+](=O)[O-])cc1)Nc1ccc([N+](=O)[O-])cc1
2,54 to 55 °C,NCc1ccc(CN2CCOCC2)cc1
3,-25 °C,Cc1ccc(C)c([N+](=O)[O-])c1
4,147 to 149 °C,CCOC(=O)c1c(C)n(OC)c2ccc3nonc3c12
5,231 to 233 °C,COc1cc(CC2C(=O)NC(=N)N2C)ccc1O (centres undefined)
6,157 to 158 °C,C/C(CCc1oc2c(Br)cc(Br)cc2c1-c1ccc(C)o1)=N/O
7,187 °C,c1ccc(Cc2nc3ccccc3[nH]2)cc1
8,75.8 °C,c1ccc2nncnc2c1
9,282 °C,Nc1cc2c(cc1Cl)C(=O)c1ccccc1C2=O
10,267 to 268 °C,Nc1c(C=O)c(=O)oc2ccccc12
11,60 °C,Nc1ccc(Cl)c(F)c1
12,75 °C,CC(=O)c1c(C)c(C)cc(C)c1C
13,98 to 100 °C,CNc1ncc(C(F)(F)F)cc1[N+](=O)[O-]
14,83 °C,COC(=O)c1c(C)n[nH]c1C
15,81.5 to 84 °C,O=S(=O)(Cl)c1cc(C(F)(F)F)ccc1N1CCOCC1
16,170 to 173 °C,CSc1nc(=O)n2ccc(C)cc2n1
17,130 °C,O=C1OS(=O)(=O)c2ccccc21
18,67.5 to 72.5 °C,N#Cc1cccc2ccsc12
19,98 °C,CC(C)OC(=O)C1=C2c3ncccc3ON2C(Cl)C(Cl)C1Cl (centres undefined)
20,214 to 218 °C,O=C(O)Cn1c(CN2CCOCC2)nc2ccccc21
21,165 °C,COc1ccc(C2(C)CCc3oc4c(Br)cc(Br)cc4c3-c3oc(C)cc32)cc1 (centres undefined)
22,43 °C,Cc1ccc2ocnc2c1
23,18 °C,O=C1CCc2ccccc2C1

row,melting point,Structure (SMILES)
1,144 °C,CC(=O)NCCc1ccccc1NC(C)=O
2,55 to 60 °C,COc1ccc(/C=C/C=O)cc1
3,125 to 129 °C,O=CC=Cc1ccccc1[N+](=O)[O-]
4,112 to 114 °C,O=[N+]([O-])c1ccc(-c2nnc3sc(/C=C/c4ccccc4)nn23)cc1
5,94 to 96 °C,Cn1nnc2cc(CO)ccc21
6,250 to 254 °C,CC(C)(C)C(=O)Nc1ccncc1C(=O)O
7,159 °C,O=C(O)c1c(C(F)(F)F)ccnc1Cl
8,93 °C,COc1ccc(C(=O)c2cccc(C)c2)cc1OC
9,152 °C,Cc1c(C)n2c(CBr)c(C)c(=O)n2c1=O
10,96 to 97 °C,S=C=Nc1ccc2nsnc2c1
11,152 °C,COc1cc(C(=O)Cc2ccccc2)c([N+](=O)[O-])cc1OC
12,190 °C,O=C1CC(c2cccc(C3=NOC(=O)C3)c2)=NO1
13,132 °C,O=C1C=CC2=CC(=O)C=CC2=C1
14,125 to 126 °C,Cn1nnc2cc(C(=O)Cl)ccc21
15,90 °C,CN(C)CCOC1=Cc2ccccc2Sc2ccc(Cl)cc21
16,142 °C,CCOC(=O)c1[nH]c(C)c(Br)c1C
17,151 to 153 °C,COC(=O)c1cc2ccccc2[nH]1
18,91 °C,CCOC(=O)N1C(=O)c2ccccc2C1=O
19,176 to 177 °C,O=C(O)c1ccc(OC(F)(F)C(F)F)cc1
20,290 to 293 °C,Cc1ccc2[nH]c(S)nc2c1
21,127 °C,Nc1cc(F)ccc1-n1ccnc1
22,171 °C,N#CCS(=O)(=O)c1ccc(Cl)cc1
23,46 to 49 °C,COC(=O)c1cccc(OC)c1OC
